Blank lines part the entries; values can stand above or below the molecule they belong to.
Columns and labels:
[1] = Drug level in Sprague-Dawley rat blood at 2 mg/kg, iv after 1 hr; type: ADME, organism-based; parameters: dose 2 mg/kg, route intravenous; conditions: read-out: Drug uptake
[2] = Cytotoxicity against human HepG2(2.2.15) cells; type: cell-based
[3] = Volume of distribution at steady state in Sprague-Dawley rat at 2 mg/kg, iv; type: ADME, organism-based; parameters: dose 2 mg/kg, route intravenous; conditions: in vivo, read-out: Vdss
[4] = Cmax in Sprague-Dawley rat at 10 mg/kg, ig; type: ADME, organism-based; parameters: dose 10 mg/kg, route intragastric; conditions: in vivo, po
[5] = Drug level in Sprague-Dawley rat blood at 2 mg/kg, iv after 2 hrs; type: ADME, organism-based; parameters: dose 2 mg/kg, route intravenous; conditions: read-out: Drug uptake
[6] = Drug level in Sprague-Dawley rat blood at 2 mg/kg, iv after 0.25 hrs; type: ADME, organism-based; parameters: dose 2 mg/kg, route intravenous; conditions: read-out: Drug uptake
[7] = Selectivity index, ratio of CC50 for human HepG2(2.2.15) cells to IC50 for HBV surface antigen secretion; type: functional
[8] = test system: Hepatitis B virus; experiment: Antiviral activity against HBV assessed as inhibition of viral early antigen secretion; type: functional, organism-based
[9] = Selectivity index, ratio of CC50 for human HepG2(2.2.15) cells to IC50 for HBV early antigen secretion; type: functional
[10] = Drug level in Sprague-Dawley rat blood at 10 mg/kg, ig after 4 hrs; type: ADME, organism-based; parameters: dose 10 mg/kg, route intragastric; conditions: po, read-out: Drug uptake
[11] = Drug level in Sprague-Dawley rat blood at 2 mg/kg, iv after 0.083 hrs; type: ADME, organism-based; parameters: dose 2 mg/kg, route intravenous; conditions: read-out: Drug uptake
[12] = test system: Rattus norvegicus; experiment: AUC in Sprague-Dawley rat at 2 mg/kg, iv; type: ADME, organism-based, Plasma; parameters: dose 2 mg/kg, route intravenous; conditions: in vivo
[13] = Drug level in Sprague-Dawley rat blood at 10 mg/kg, ig after 0.25 hrs; type: ADME, organism-based; parameters: dose 10 mg/kg, route intragastric; conditions: po, read-out: Drug uptake
[14] = test system: Hepatitis B virus; experiment: Antiviral activity against HBV assessed as inhibition of viral surface antigen secretion; type: functional, organism-based
[15] = Drug level in Sprague-Dawley rat blood at 2 mg/kg, iv after 0.5 hrs; type: ADME, organism-based; parameters: dose 2 mg/kg, route intravenous; conditions: read-out: Drug uptake
[16] = Drug level in Sprague-Dawley rat blood at 10 mg/kg, ig after 2 hrs; type: ADME, organism-based; parameters: dose 10 mg/kg, route intragastric; conditions: po, read-out: Drug uptake
[17] = Half life in Sprague-Dawley rat at 2 mg/kg, iv; type: ADME, organism-based; parameters: dose 2 mg/kg, route intravenous; conditions: in vivo
[18] = Tmax in Sprague-Dawley rat at 10 mg/kg, ig; type: ADME, organism-based; parameters: dose 10 mg/kg, route intragastric; conditions: in vivo, po
[19] = test system: Rattus norvegicus; experiment: Oral bioavailability in Sprague-Dawley rat at 10 mg/kg; type: ADME, organism-based; conditions: in vivo
[20] = test system: Rattus norvegicus; experiment: Clearance in Sprague-Dawley rat at 2 mg/kg, iv; type: ADME, organism-based; parameters: dose 2 mg/kg, route intravenous; conditions: in vivo
[21] = Drug level in Sprague-Dawley rat blood at 10 mg/kg, ig after 0.083 hrs; type: ADME, organism-based; parameters: dose 10 mg/kg, route intragastric; conditions: po, read-out: Drug uptake
[22] = test system: Rattus norvegicus; experiment: AUC in Sprague-Dawley rat at 10 mg/kg, ig; type: ADME, organism-based, Plasma; parameters: dose 10 mg/kg, route intragastric; conditions: in vivo, po
[23] = Initial plasma concentration n Sprague-Dawley rat at 2 mg/kg, iv; type: ADME, organism-based; parameters: dose 2 mg/kg, route intravenous
[24] = Drug level in Sprague-Dawley rat blood at 2 mg/kg, iv after 8 hrs; type: ADME, organism-based; parameters: dose 2 mg/kg, route intravenous; conditions: read-out: Drug uptake
[25] = Drug level in Sprague-Dawley rat blood at 10 mg/kg, ig after 0.5 hrs; type: ADME, organism-based; parameters: dose 10 mg/kg, route intragastric; conditions: po, read-out: Drug uptake
[26] = Drug level in Sprague-Dawley rat blood at 2 mg/kg, iv after 24 hrs; type: ADME, organism-based; parameters: dose 2 mg/kg, route intravenous; conditions: read-out: Drug uptake
[27] = Drug level in Sprague-Dawley rat blood at 2 mg/kg, iv after 4 hrs; type: ADME, organism-based; parameters: dose 2 mg/kg, route intravenous; conditions: read-out: Drug uptake
[28] = Drug level in Sprague-Dawley rat blood at 10 mg/kg, ig after 24 hrs; type: ADME, organism-based; parameters: dose 10 mg/kg, route intragastric; conditions: po, read-out: Drug uptake
[29] = Drug level in Sprague-Dawley rat blood at 10 mg/kg, ig after 1 hr; type: ADME, organism-based; parameters: dose 10 mg/kg, route intragastric; conditions: po, read-out: Drug uptake
[30] = Drug level in Sprague-Dawley rat blood at 10 mg/kg, ig after 8 hrs; type: ADME, organism-based; parameters: dose 10 mg/kg, route intragastric; conditions: po, read-out: Drug uptake

- concentration at 1 h [1]: 156 ng/mL
- Vd [3]: 5.73 L/kg
- Cmax [4]: 383 ng/mL
- concentration at 2 h [5]: 71.8 ng/mL
- concentration at 0.25 h [6]: 363 ng/mL
- IC50 [8]: 11 µM
- concentration at 4 h [10]: 55.9 ng/mL
- concentration at 0.083 h [11]: 567 ng/mL
- AUC [12]: 510 ng·h/mL
- concentration at 0.25 h [13]: 70 ng/mL
- IC50 [14]: 4.8 µM
- concentration at 0.5 h [15]: 246 ng/mL
- concentration at 2 h [16]: 290 ng/mL
- half-life [17]: 1.63 h
- Tmax [18]: 1 h
- F [19]: 40.9%
- CL [20]: 64.5 mL/min/kg
- concentration at 0.083 h [21]: 8.6 ng/mL
- AUC [22]: 1040 ng·h/mL
- C0 [23]: 567 ng/mL
- concentration at 8 h [24]: 5.02 ng/mL
- concentration at 0.5 h [25]: 170 ng/mL
- concentration at 24 h [26]: 2.19 ng/mL
- concentration at 4 h [27]: 14.5 ng/mL
- concentration at 24 h [28]: 2.03 ng/mL
- concentration at 1 h [29]: 383 ng/mL
- concentration at 8 h [30]: 6.28 ng/mL
SMILES: CC(=O)O[C@@H](C[C@@H](C)C1=C2C[C@H](OC(C)=O)[C@H]3[C@@]4(C)CCC(=O)C(C)(C)[C@@H]4CC[C@]3(C)[C@@]2(C)CC1)[C@@H](OC(C)=O)C(C)(C)OC(C)=O
- CC50 [2]: > 1600 µM
- Ratio CC50/IC50 [7]: >333
- Ratio CC50/IC50 [9]: >145

- IC50 [8]: 12 µM
- IC50 [14]: 4.4 µM
SMILES: COCC(=O)OC(C)(C)[C@H](OC(C)=O)[C@H](C[C@@H](C)C1=C2C[C@H](OC(C)=O)[C@H]3[C@@]4(C)CCC(=O)C(C)(C)[C@@H]4CC[C@]3(C)[C@@]2(C)CC1)OC(C)=O
- CC50 [2]: 920 µM
- Ratio CC50/IC50 [7]: 209
- Ratio CC50/IC50 [9]: 77
